Results on 19 molecules are retold here after patent publication US20070049593A1 (priority 2004, published 2007).

By IC50 is commonly meant the concentration at which inhibition is half-maximal.

The target of this assay is T1, HCV polymerase (Hepatitis C virus genotype 1b, UniProt P26663).
T1 construct: a region encoding NS5B (J Virol 1991 March, 65(3), 1105-13, 544 amino acids after deletion of 47 amino acids on the C-terminal); 6xHis (C); made in house; host or cells: Escherichia coli
The experiment in a line: biochemical. Details: species or system HCV BK strain. The essentials: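 Recombinant HCV BK-strain NS5B (C-terminal 47 aa deleted, His6-tagged, E. coli), 0.5 μg/ml, run with 5 μg/ml in vitro-transcribed RNA template (polyU/3′X), ATP/GTP/CTP 50 μM, UTP 2 μM plus [3H]UTP, pH 7.5, 25° C, 90 min. TCA-precipitated RNA counted by scintillation; IC50 from activity with vs without compound.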

Structures can show the parent of a compound that is named as a salt.

T1 sequence (P26663 2420-2963): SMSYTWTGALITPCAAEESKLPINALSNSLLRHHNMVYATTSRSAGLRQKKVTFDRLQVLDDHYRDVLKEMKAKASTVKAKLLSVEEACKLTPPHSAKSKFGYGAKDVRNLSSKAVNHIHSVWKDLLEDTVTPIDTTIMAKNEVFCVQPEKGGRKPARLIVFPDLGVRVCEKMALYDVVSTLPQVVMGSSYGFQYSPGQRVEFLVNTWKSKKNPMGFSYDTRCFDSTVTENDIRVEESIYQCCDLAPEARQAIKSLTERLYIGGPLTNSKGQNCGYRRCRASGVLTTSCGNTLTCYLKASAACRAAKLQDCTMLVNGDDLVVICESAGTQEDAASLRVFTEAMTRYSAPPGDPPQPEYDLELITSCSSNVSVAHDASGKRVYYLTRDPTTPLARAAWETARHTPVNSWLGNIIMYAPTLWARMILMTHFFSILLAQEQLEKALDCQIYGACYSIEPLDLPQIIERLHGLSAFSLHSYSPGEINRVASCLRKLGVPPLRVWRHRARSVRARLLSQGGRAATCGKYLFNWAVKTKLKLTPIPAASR

Turning to `CN(C)CCN1CCn2c(c(C3CCCCC3)c3ccc(C(=O)O)cc32)-c2ccc(Oc3ccccc3)cc21` [Example 1-311, 13-cyclohexyl-5-(2-dimethylaminoethyl)-3-phenoxy-6,7-dihydro-5H-benzo[5,6][1,4]diazepino[7,1-a]indole-10-carboxylic acid dihydrochloride], the half-inhibitory concentration (IC50) was less than 100 nM. With `COc1ccc2c(c1)OCCn1c-2c(C2CCCCC2)c2ccc(C(=O)NC(C)(C)c3nc4cc(C(=O)O)c(OC)cc4[nH]3)cc21` [Example 2-347, 2-{1-[(12-cyclohexyl-3-methoxy-6,7-dihydro-5-oxa-7a-azadibenzo[a,e]azulene-9-carbonyl)amino]-1-methylethyl}-6-methoxy-1H-benzimidazole-5-carboxylic acid], the concentration for half-maximal inhibition (IC50) is less than 100 nM. In the case of `CC(C)OCCN(CCN1CCCCC1)c1cccc2c1OCCn1c-2c(C2CCCCC2)c2ccc(C(=O)O)cc21` [Example 2-257, 12-cyclohexyl-4-(N-(2-isopropoxyethyl)-N-[2-(piperidin-1-yl)ethyl]amino}-6,7-dihydro-5-oxa-7a-azadibenzo[a,e]azulene-9-carboxylic acid dihydrochloride] it was less than 100 nM. `O=C(O)c1ccc2c(C3CCCCC3)c3n(c2c1)CCOc1c(-c2ccncc2)cccc1-3` [Example 2-299, 12-cyclohexyl-4-(pyridin-4-yl)-6,7-dihydro-5-oxa-7a-azadibenzo[a,e]azulene-9-carboxylic acid monohydrochloride] yielded an IC50 of less than 100 nM. The molecule `O=C(O)c1ccc2c(C3CCCCC3)c3n(c2c1)CCOc1c-3cccc1N(CCc1ccccc1)CCN1CCCCC1` [Example 2-221, 12-cyclohexyl-4-{N-phenethyl-N-[2-(piperidin-1-yl)ethyl]amino}-6,7-dihydro-5-oxa-7a-azadibenzo[a,e]azulene-9-carboxylic acid] came in with an IC50 of less than 100 nM.

`COC(=O)Oc1ccc2c(c1)N(CCN(C)C)CCn1c-2c(C2CCCCC2)c2ccc(C(=O)O)cc21` [Example 1-310, 13-cyclohexyl-5-(2-dimethylaminoethyl)-3-methoxycarbonyloxy-6,7-dihydro-5H-benzo[5,6][1,4]diazepino[7,1-a]indole-10-carboxylic acid dihydrochloride]: the half-inhibitory concentration (IC50) was less than 100 nM. Next, `COc1ccc2c(c1)OCCn1c-2c(C2CCCCC2)c2ccc(C(=O)NC3(C(=O)Nc4ccc(/C=C/C(N)=O)cc4)CCC3)cc21` [Example 2-543, N-{1-[4-((E)-2-carbamoylvinyl)phenylcarbamoyl]cyclobutyl}-12-cyclohexyl-3-methoxy-6,7-dihydro-5-oxa-7a-azadibenzo[a,e]azulene-9-carboxamide]: less than 100 nM; `COCC1CCN(CCN2CCn3c(c(C4CCCCC4)c4ccc(C(=O)O)cc43)-c3ccccc32)CC1` [Example 1-197, 13-cyclohexyl-5-[2-(4-methoxymethylpiperidin-1-yl)ethyl]-6,7-dihydro-5H-benzo[5,6][1,4]diazepino[7,1-a]indole-10-carboxylic acid dihydrochloride]: less than 100 nM. In the case of `COc1ccc2c(c1)OCCn1c-2c(C2CCCCC2)c2ccc(C(=O)NC3(C(=O)Nc4ccc(/C=C/C(=O)O)cc4OCCOCc4ccccc4)CCC3)cc21` [Example 2-530, (E)-3-[3-(2-benzyloxyethoxy)-4-({1-[(12-cyclohexyl-3-methoxy-6,7-dihydro-5-oxa-7a-azadibenzo[a,e]azulene-9-carbonyl)amino]cyclobutanecarbonyl}amino)phenyl]acrylic acid] it was less than 100 nM; in that of `CN1CCn2c(c(C3CCCCC3)c3ccc(C(=O)O)cc32)-c2ccc(OCCC3CCNCC3)cc21` [Example 1-438, 13-cyclohexyl-5-methyl-3-[2-(piperidin-4-yl)ethoxy]-6,7-dihydro-5H-benzo[5,6][1,4]diazepino[7,1-a]indole-10-carboxylic acid dihydrochloride], less than 100 nM.

In turn, `COc1ccc2c(c1)N(CCN1CCSCC1)CCn1c-2c(C2CCCCC2)c2ccc(C(=O)O)cc21` [Example 1-568, 13-cyclohexyl-3-methoxy-5-[2-(thiomorpholin-4-yl)ethyl]-6,7-dihydro-5H-benzo[5,6][1,4]diazepino[7,1-a]indole-10-carboxylic acid dihydrochloride] gave an IC50 of less than 100 nM. In the case of `O=C(O)c1ccc2c(C3CCCCC3)c3n(c2c1)CCN(CC(=O)N1CCC(F)(F)CC1)c1ccccc1-3` [Example 1-171, 13-cyclohexyl-5-[2-(4,4-difluoropiperidin-1-yl)-2-oxoethyl]-6,7-dihydro-5H-benzo[5,6][1,4]diazepino[7,1-a]indole-10-carboxylic acid monohydrochloride] it was less than 100 nM; in that of `COC(=O)N1CCC[C@H]1COc1ccc2c(c1)OCCn1c-2c(C2CCCCC2)c2ccc(C(=O)O)cc21` [Example 2-37, 12-cyclohexyl-3-((S)-1-methoxycarbonylpyrrolidin-2-ylmethoxy)-6,7-dihydro-5-oxa-7a-azadibenzo[a,e]azulene-9-carboxylic acid], less than 100 nM; in that of `CC(C)N(C)CCN1CCn2c(c(C3CCCCC3)c3ccc(C(=O)O)cc32)-c2ccccc21` [Example 1-212, 13-cyclohexyl-5-[2-(N-isopropyl-N-methylamino)ethyl]-6,7-dihydro-5H-benzo[5,6][1,4]diazepino[7,1-a]indole-10-carboxylic acid dihydrochloride], less than 100 nM. Molecule `CC(C)Oc1ccc2c(c1)OCCn1c-2c(C2CCCCC2)c2ccc(C(=O)NC3(C(=O)Nc4ccc(/C=C/C(=O)O)cc4)CCC3)cc21` [Example 2-556, (E)-3-[4-({1-[(12-cyclohexyl-3-isopropoxy-6,7-dihydro-5-oxa-7a-azadibenzo[a,e]azulene-9-carbonyl)amino]cyclobutanecarbonyl}amino)phenyl]acrylic acid] registered an IC50 of less than 100 nM. Next, `CC(C)(NC(=O)c1ccc2c(C3CCCCC3)c3n(c2c1)CCOc1ccccc1-3)C(=O)Nc1ccc(F)cc1` [Example 2-204, N-[1-(4-fluorophenylcarbamoyl)-1-methylethyl]-12-cyclohexyl-6,7-dihydro-5-oxa-7a-azadibenzo[a,e]azulene-9-carboxamide]: less than 100 nM. As for `Cn1c(CNC(=O)c2ccc3c(C4CCCCC4)c4n(c3c2)CCOc2ccccc2-4)nc2ccccc21` [Example 2-249, N-(1-methyl-1H-benzimidazol-2-ylmethyl)-12-cyclohexyl-6,7-dihydro-5-oxa-7a-azadibenzo[a,e]azulene-9-carboxamide], the IC50 was less than 100 nM. In the case of `Cc1ccc2c(c1)N(CCN1CCOC(C)C1)CCn1c-2c(C2CCCCC2)c2ccc(C(=O)O)cc21` (stereo not shown) [Example 1-329, 13-cyclohexyl-3-methyl-5-[2-(2-methylmorpholin-4-yl)ethyl]-6,7-dihydro-5H-benzo[5,6][1,4]diazepino[7,1-a]indole-10-carboxylic acid dihydrochloride] it was less than 100 nM. Next, `COC(=O)C(Cc1ccc(C(F)(F)F)cc1)NC(=O)c1ccc2c(C3CCCCC3)c3n(c2c1)CCOc1cc(OC)ccc1-3` (stereo not shown) [Example 2-374, methyl 2-[(12-cyclohexyl-3-methoxy-6,7-dihydro-5-oxa-7a-azadibenzo[a,e]azulene-9-carbonyl)amino]-3-(4-trifluoromethylphenyl)propionate]: less than 100 nM.
